Results from BigSolDB 2.1.

Cc1c(N)cccc1C(=O)O
solubility (mole fraction)
Conditions | 288.15 K | 293.15 K | 298.15 K | 303.15 K | 308.15 K | 313.15 K | 318.15 K | 323.15 K | 328.15 K
in acetonitrile | 0.0004 | 0.000499 | 0.000728 | 0.000986 | 0.00126 | 0.0017 | 0.00202 | 0.00251 | 0.00307
in ethanol | 0.00373 | 0.00422 | 0.00496 | 0.00628 | 0.00749 | 0.00891 | 0.0105 | 0.0124 | 0.0151
in ethyl acetate | 0.000961 | 0.00107 | 0.00135 | 0.00173 | 0.0022 | 0.00283 | 0.0035 | 0.00436 | 0.00524
in isobutanol | 0.00112 | 0.00132 | 0.00191 | 0.00254 | 0.00322 | 0.00427 | 0.00534 | 0.0069 | 0.00839
in isopropanol | 0.00196 | 0.00228 | 0.00298 | 0.00386 | 0.00494 | 0.00629 | 0.0079 | 0.00991 | 0.0123
in methanol | 0.00532 | 0.0059 | 0.00682 | 0.00844 | 0.00979 | 0.0115 | 0.0136 | 0.0159 | 0.0178
in methyl acetate | 0.000975 | 0.00127 | 0.00179 | 0.0024 | 0.00292 | 0.00347 | 0.00428 | 0.00514 | 0.00571
in n-butanol | 0.00236 | 0.00269 | 0.00333 | 0.00442 | 0.00535 | 0.00659 | 0.0079 | 0.00962 | 0.0115
in n-propanol | 0.00245 | 0.00277 | 0.00341 | 0.00444 | 0.00542 | 0.00672 | 0.00824 | 0.0101 | 0.0123
in n-propyl acetate | 0.000796 | 0.000942 | 0.00109 | 0.00142 | 0.00176 | 0.00225 | 0.00286 | 0.00368 | 0.0047
in sec-butanol | 0.00178 | 0.00209 | 0.00285 | 0.00388 | 0.00513 | 0.00675 | 0.00858 | 0.0111 | 0.0138
in water | 0.000581 | 0.000588 | 0.00062 | 0.000669 | 0.000718 | 0.00079 | 0.000887 | 0.00098 | 0.00105
